Where “and” joins values, the source holds several entries; their conditions need not be identical. Identical values can stand only once. Entries after “also recorded” stand apart in the source; their conditions may differ.
How the values were obtained:
Format in all cases: in vivo, human
[1] = system: intermediate-2 or high-risk myelofibrosis (MF) relapsed/refractory to JAK inhibitor; experiment: Phase 2 study: spleen response (spleen volume reduction, SVR, by MRI at week 24); conditions: for subjects with SVR >= 20% at week 24, No / subjects with SVR >= 20% at week 24, Yes / subjects with SVR >= 35% at wk 24 by IRC, No / subjects with SVR >= 35% at wk 24 by IRC, Yes / subjects with SVR >= 20% at Week 24 by IRC, No / subjects with SVR >= 20% at Week 24 by IRC, Yes / subjects with SVR >= 35% at Week 24 by IRC, Yes / subjects with SVR >= 35% at week 24 by IRC, No: 9.4 mg/kg
From the text: (§1) Diagnosis of primary, post-essential thrombocythemia, or post-polycythemia vera MF was required; other eligibility criteria included measurable splenomegaly (by magnetic resonance imaging [MRI]), active MF-related systemic symptoms and platelet count ≥75×10^9/L. Primary endpoints were: spleen response rate (% achieving ≥35% spleen volume reduction [SVR] by MRI at week 24); and symptom response rate (% achieving ≥50% reduction in total symptom score [TSS] per the Myelofibrosis Symptom Assessment Form (MFSAF) v2 at week 24). Key secondary endpoints included safety, overall survival (OS), treatment response, molecular response, and pharmacokinetic and pharmacodynamic relationships.

[2] = system: intermediate-2 or high-risk myelofibrosis (MF) relapsed/refractory to JAK inhibitor; experiment: Phase 2 study: symptom response (total symptom score, TSS, MFSAF v2 at week 24); conditions: for subjects with TSS >= 50% decrease at week 24, No / subjects with TSS >= 50% decrease at week 24, Yes: 9.4 mg/kg
From the text: as §1

[3] = system: intermediate-2 or high-risk myelofibrosis (MF) relapsed/refractory to JAK inhibitor; experiment: Phase 2 study: overall survival (OS); conditions: 9.4 mg/kg arm
From the text: as §1

[4] = HMR with 1 Mutation, 21 subjects
[5] = HMR with >1 Mutation, 14 subjects
[6] = all patients, first clinical cutoff

DNA, d(3′-amino-3′-deoxy-P-thio) (T-A-G-G-G-T-T-A-G-A-C-A-A), 5′-[O-[2-hydroxy-3-(hexadecanoylamino)propyl] phosphorothioate], sodium salt (1:13) [imetelstat sodium]
spleen response rate (>=35% SVR by MRI at week 24) ([1]; 9.4 mg/kg IV every 3 weeks arm, all patients (n = 59)): 10.2%
rate of response (SVR or TSS), LMR or HMR with only 1 mutation compared to HMR with more than 1 mutations ([1]; 9.4 mg/kg arm, week 24): higher rate of response
rate of response (SVR or TSS), TN group compared to Non-TN group ([1]; 9.4 mg/kg arm, week 24): higher rate of response
subjects with SVR >= 20% at week 24, No [1, 4]: 15 (71.4%)
subjects with SVR >= 20% at week 24, Yes [1, 4]: 6 (28.6%)
subjects with SVR >= 35% at wk 24 by IRC, No [1, 4]: 17 (81%)
subjects with SVR >= 35% at wk 24 by IRC, Yes [1, 4]: 4 (19%)
subjects with SVR >= 20% at week 24, No [1, 5]: 13 (92.9%)
subjects with SVR >= 20% at week 24, Yes [1, 5]: 1 (7.1%)
subjects with SVR >= 35% at wk 24 by IRC, Yes [1, 5]: 0 (0%)
subjects with SVR >= 20% at week 24, No ([1]; LMR, No Mutation, 22 subjects): 17 (77.3%)
subjects with SVR >= 20% at week 24, Yes ([1]; LMR, No Mutation, 22 subjects): 5 (22.7%)
subjects with SVR >= 35% at wk 24 by IRC, No ([1]; LMR, No Mutation, 22 subjects): 20 (90.9%)
subjects with SVR >= 35% at wk 24 by IRC, Yes ([1]; LMR, No Mutation, 22 subjects): 2 (9.1%)
subjects with SVR >= 20% at Week 24 by IRC, No ([1]; Non-TN, 41 subjects): 34 (82.9%)
subjects with SVR >= 20% at Week 24 by IRC, Yes ([1]; Non-TN, 41 subjects): 7 (17.1%)
subjects with SVR >= 35% at Week 24 by IRC, Yes ([1]; Non-TN, 41 subjects): 3 (7.3%)
subjects with SVR >= 35% at week 24 by IRC, No ([1]; Non-TN, 41 subjects): 38 (92.7%)
subjects with SVR >= 20% at Week 24 by IRC, No ([1]; TN, 16 subjects): 11 (68.75)) %
subjects with SVR >= 20% at Week 24 by IRC, Yes ([1]; TN, 16 subjects): 5 (31.25%)
subjects with SVR >= 35% at Week 24 by IRC, Yes ([1]; TN, 16 subjects): 3 (18.75%)
subjects with SVR >= 35% at week 24 by IRC, No ([1]; TN, 16 subjects): 13 (81.25%)
spleen response rate, comparison by HMR mutation ([1]; patients with 1 HMR mutation (ASXL1, EZH2, SRSF2, or IDH1/2)): higher
symptom response rate (TSS reduction >=50% at week 24) ([2]; 9.4 mg/kg arm, all patients (n = 59)): 32%
subjects with TSS >= 50% decrease at week 24, No [2, 4]: 14 (66.7%)
subjects with TSS >= 50% decrease at week 24, Yes [2, 4]: 7 (33.3%)
subjects with TSS >= 50% decrease at week 24, No [2, 5]: 11 (78.6%)
subjects with TSS >= 50% decrease at week 24, Yes [2, 5]: 3 (21.4%)
subjects with TSS >= 50% decrease at week 24, No ([2]; LMR, No Mutation, 22 subjects): 14 (63.6%)
subjects with TSS >= 50% decrease at week 24, Yes ([2]; LMR, No Mutation, 22 subjects): 8 (36.4%)
subjects with TSS >= 50% decrease at week 24, No ([2]; Non-TN, 41 subjects): 31 (75.6%)
subjects with TSS >= 50% decrease at week 24, Yes ([2]; Non-TN, 41 subjects): 10 (24.4%)
subjects with TSS >= 50% decrease at week 24, No ([2]; TN, 16 subjects): 8 (50%)
subjects with TSS >= 50% decrease at week 24, Yes ([2]; TN, 16 subjects): 8 (50%)
Median survival, months (95% CI) ([3]; Non-TN subjects, first clinical cutoff): 23.6 months and 23.6 (20.7, NE) months
OS HR (95% CI) ([3]; Non-TN vs TN, first clinical cutoff): 2.76 (0.81, 9.46)
Death rate % ([3]; Non-TN, first clinical cutoff): 41.5%
Median survival, months (95% CI) ([3]; TN subjects, first clinical cutoff): has not been reached; also recorded: not estimable; also recorded: NE (23.2, NE)
Death rate % ([3]; TN, first clinical cutoff): 18.8%
18-month survival rate [3, 6]: 76.7%
median OS [3, 6]: has not been reached
median OS ([3]; all patients, second clinical cutoff): 29.9 months
death rate, TN group compared to Non-TN group ([3]; first clinical cutoff): lower death rate
death rate, TN group compared to Non-TN group ([3]; second clinical cutoff): lower death rate

— US20200063214A1, “METHODS OF IDENTIFYING PATIENTS LIKELY TO BENEFIT FROM TREATMENT WITH A TELOMERASE INHIBITOR” (Geron Corporation, priority 2018, published 2020)
